Experimental data from the NIST ThermoML archive (doi:10.1016/j.jct.2016.07.005).

Assay: xn = mol fraction of the nth substance listed
Details: 100 kPa, Liquid; for viscosity: Concentric cylinders viscometry; for mass density: Vibrating tube method

CN1CCC[C@H]1c1cccnc1 [(-)-3-(N-methylpyrrolidino)pyridine] + OCCCO
Details	mass density [kg/m3]	viscosity [mPa·s]
293.15 K, x1 = 0.1	1049.36	63.86
293.15 K, x1 = 0.1999	1045.43	63.55
293.15 K, x1 = 0.3	1041.3	55.97
293.15 K, x1 = 0.3994	1037.05	44.97
293.15 K, x1 = 0.5	1032.67	33.15
293.15 K, x1 = 0.6004	1028.25	22.75
293.15 K, x1 = 0.7	1023.76	14.91
293.15 K, x1 = 0.8	1019.33	9.805
293.15 K, x1 = 0.9	1014.74	6.894
293.15 K, x1 = 1	1010.23	4.694
298.15 K, x1 = 0.1	1045.96	48.97
298.15 K, x1 = 0.1999	1041.83	48.13
298.15 K, x1 = 0.3	1037.55	42.26
298.15 K, x1 = 0.3994	1033.17	34.05
298.15 K, x1 = 0.5	1028.72	25.35
298.15 K, x1 = 0.6004	1024.24	17.71
298.15 K, x1 = 0.7	1019.71	11.93
298.15 K, x1 = 0.8	1015.26	8.105
298.15 K, x1 = 0.9	1010.67	5.832
298.15 K, x1 = 1	1006.16	4.048
303.15 K, x1 = 0.1	1042.55	37.97
303.15 K, x1 = 0.1999	1038.21	36.9
303.15 K, x1 = 0.3	1033.78	32.31
303.15 K, x1 = 0.3994	1029.3	26.12
303.15 K, x1 = 0.5	1024.77	19.64
303.15 K, x1 = 0.6004	1020.24	13.95
303.15 K, x1 = 0.7	1015.68	9.624
303.15 K, x1 = 0.8	1011.2	6.722
303.15 K, x1 = 0.9	1006.61	4.943
303.15 K, x1 = 1	1002.1	3.518
308.15 K, x1 = 0.1	1039.14	29.84
308.15 K, x1 = 0.1999	1034.59	28.71
308.15 K, x1 = 0.3	1030.01	25.12
308.15 K, x1 = 0.3994	1025.41	20.41
308.15 K, x1 = 0.5	1020.81	15.5
308.15 K, x1 = 0.6004	1016.23	11.19
308.15 K, x1 = 0.7	1011.64	7.885
308.15 K, x1 = 0.8	1007.15	5.621
308.15 K, x1 = 0.9	1002.55	4.2
308.15 K, x1 = 1	998.055	3.088
313.15 K, x1 = 0.1	1035.71	23.69
313.15 K, x1 = 0.1999	1030.96	22.59
313.15 K, x1 = 0.3	1026.23	19.74
313.15 K, x1 = 0.3994	1021.52	16.11
313.15 K, x1 = 0.5	1016.85	12.36
313.15 K, x1 = 0.6004	1012.22	9.06
313.15 K, x1 = 0.7	1007.6	6.513
313.15 K, x1 = 0.8	1003.09	4.749
313.15 K, x1 = 0.9	998.498	3.625
313.15 K, x1 = 1	994.014	2.758
318.15 K, x1 = 0.1	1032.27	19.28
318.15 K, x1 = 0.1999	1027.32	18.26
318.15 K, x1 = 0.3	1022.43	15.95
318.15 K, x1 = 0.3994	1017.62	13.08
318.15 K, x1 = 0.5	1012.88	10.14
318.15 K, x1 = 0.6004	1008.21	7.559
318.15 K, x1 = 0.7	1003.56	5.549
318.15 K, x1 = 0.8	999.04	4.128
318.15 K, x1 = 0.9	994.453	3.18
318.15 K, x1 = 1	989.984	2.411
323.15 K, x1 = 0.1	1028.82	15.87
323.15 K, x1 = 0.1999	1023.66	14.94
323.15 K, x1 = 0.3	1018.63	13.05
323.15 K, x1 = 0.3994	1013.72	10.76
323.15 K, x1 = 0.5	1008.9	8.437
323.15 K, x1 = 0.6004	1004.18	6.389
323.15 K, x1 = 0.7	999.506	4.782
323.15 K, x1 = 0.8	994.989	3.625
323.15 K, x1 = 0.9	990.406	2.837
323.15 K, x1 = 1	985.962	2.195
